The text below walks through data of US11186564B2, “Dual NAV1.2/5HT2a inhibitors for treating CNS disorders” (Sunovion Pharmaceuticals Inc., priority 2016, dated 2021).

A value given as a limit tells only on which side of the number the result lay.

This test has as its target T1, recombinant human serotonin receptor 5-HT2A (Homo sapiens, UniProt P28223).
T1 construct: expressed in transfected cells; method B: loaded with Ca2+ dye
The test can be described thus: 5-HT2A antagonist Ca2+ assay in CHO-K1 cells (method A aequorin luminescence / method B FLIPR fluorescence). The settings on record: antagonist mode vs EC80 of reference agonist, method A or B, read-out: 5HT2A IC50. It is filed as cell-based. An excerpt: The methods utilized to assess the inhibitory activity of compounds on recombinant human serotonin receptor 5-HT2A was based upon previously published approaches [Jerman J C, Brough S J, Gager T, Wood M, Coldwell M C, Smart D, Middlemiss D N. Pharmacological characterisation of human 5-HT2 receptor subtypes. European Journal of Pharmacology 2001 Feb. 23; 414(1):23-30; Le Poul E, Hisada S, Mizuguchi Y, Dupriez V J, Burgeon E, Detheux M. Adaptation of aequorin functional assay to high throughput screening. J Biomolecular Screening 2002 February; 7(1):57-65.] The 5-HT2A receptor signals through Gq-phospholipase signaling cascade, which leads to a transient increase in free intracellular […] concentration. Both 5-HT2A assay methods rely upon monitoring these changes in Ca^2+ concentration.
In method A [Le Poul E, Hisada S, Mizuguchi Y, Dupriez V J, Burgeon E, Detheux M. (2002)], CHO-K1 cells engineered to stably co-express both recombinant human 5-HT2A and mitochondrial apoaequorin are used. […] For agonist testing, 50 microliters of cell suspension is mixed with 50 microliters of a solution containing test compound or reference agonist in a 96-well standard geometry microtiter plate. The resulting emission of light was recorded using a Hamamatsu Functional Drug Screening System 6000 (FDSS 6000) luminometer. For antagonist testing, 100 microliters of the solution of reference agonist (to yield an agonist concentration, EC80, sufficient to cause the cells to generate an 80% maximal luminescence response in the absence of any antagonist) is injected into the mix of cells and test compound, 15 minutes after the first injection. The resulting emission of light is recorded using Hamamatsu FDSS 6000 luminometer. IC50 values are calculated (from compound concentration dependent inhibition of agonist-induced 5-HT2A-dependent light emission) by non-linear least squares regression of the data (percent inhibition) onto equation (1) above.
In method B [Jerman J C, Brough S J, Gager T, Wood M, Coldwell M C, Smart D, Middlemiss D N. (2001)], CHO-K1 cells which had been engineered to stably co-express recombinant human 5-HT2A are used in assay done similarly to method A. In method B, the cells are loaded with a fluorogenic Ca^2+ indicator dye by pre-incubation. Addition of the reference agonist serotonin causes a transient increase in fluorescence in a suspension of the loaded cells, which can be detected using the Molecular Devices fluorometric imaging plate reader (FLIPR), a high-throughput platform for 96-well cell-based assays. Addition of test compounds that are 5-HT2A antagonists, prior to the addition of the agonist (to yield an agonist concentration, EC80, sufficient to cause the cells to generate an 80% maximal fluorescence response in the absence of any antagonist), reduces the amount of fluorescence detected by the FLIPR upon agonist addition. IC50 values are calculated (from compound concentration dependent inhibition of agonist-induced 5-HT2A-dependent fluorescence) by non-linear least squares regression of the data (percent inhibition) onto equation (1) above.

T1 sequence (P28223 whole entry): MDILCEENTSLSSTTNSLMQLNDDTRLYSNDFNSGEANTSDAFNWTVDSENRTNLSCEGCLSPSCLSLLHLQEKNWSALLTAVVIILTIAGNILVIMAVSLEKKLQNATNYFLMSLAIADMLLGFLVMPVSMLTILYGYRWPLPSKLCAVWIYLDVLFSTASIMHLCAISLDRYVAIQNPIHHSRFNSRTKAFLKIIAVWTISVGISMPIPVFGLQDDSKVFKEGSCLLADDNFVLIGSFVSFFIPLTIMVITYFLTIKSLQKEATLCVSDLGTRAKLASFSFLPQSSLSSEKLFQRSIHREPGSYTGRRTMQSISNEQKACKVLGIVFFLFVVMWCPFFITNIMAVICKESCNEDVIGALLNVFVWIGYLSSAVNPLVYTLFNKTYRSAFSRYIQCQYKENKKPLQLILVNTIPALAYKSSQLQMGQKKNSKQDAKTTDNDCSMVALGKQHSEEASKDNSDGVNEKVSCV

A word on the IC50: it is the concentration that inhibits the measured activity by half. For the molecule `COc1ccccc1OC1CCN(CC2CCc3cc(C#N)ccc32)CC1` (centres unmarked) [Example 99, 1-((4-(2-methoxyphenoxy)piperidin-1-yl)methyl)-2,3-dihydro-1H-indene-5-carbonitrile], the IC50 stood at 450 nM.

With `COc1ccccc1OC1CCN(CC2CCc3ccccc32)CC1` (centres unmarked) [Example 105, 1-((2,3-dihydro-1H-inden-1-yl)methyl)-4-(2-methoxyphenoxy)piperidine], the IC50 was 430 nM.

Regarding `COc1ccc2c(c1)C(CN1CCC(Oc3cccc(C(N)=O)c3)CC1)CC2` (centres unmarked) [Example 108, 3-((1-((6-methoxy-2,3-dihydro-1H-inden-1-yl)methyl)piperidin-4-yl)oxy)benzamide], the 50% inhibitory concentration (IC50) was 740 nM.

On to `COc1ccc2c(c1)C(CN1CCC(Oc3cccnc3)CC1)CC2` (centres unmarked) [Example 109, 3-((1-((6-methoxy-2,3-dihydro-1H-inden-1-yl)methyl)piperidin-4-yl)oxy)pyridine], for which the IC50 worked out at 1920 nM.

For the molecule `COc1ccc2c(c1)C(CN1CCC(Oc3cccc(C#N)c3)CC1)CC2` (centres unmarked) [Example 110, 3-((1-((6-methoxy-2,3-dihydro-1H-inden-1-yl)methyl)piperidin-4-yl)oxy)benzonitrile], the IC50 turned out to be 4040 nM.

On to `COCc1cccc(OC2CCN(CC3CCc4ccc(OC)cc43)CC2)c1` (centres unmarked) [Example 111, 1-((6-methoxy-2,3-dihydro-1H-inden-1-yl)methyl)-4-(3-(methoxymethyl)phenoxy)piperidine], for which the concentration for half-maximal inhibition (IC50) stood at 210 nM.

With `Fc1cccc2c1C(CN1CCC(Oc3ccncc3)CC1)CC2` (centres unmarked) [Example 118, 4-((1-((7-fluoro-2,3-dihydro-1H-inden-1-yl)methyl)piperidin-4-yl)oxy)pyridine], the IC50 came to 1780 nM.

Turning to `COc1ccc2c(c1)C(CN1CCC(Oc3ccc(C#N)cc3)CC1)CC2` (centres unmarked) [Example 120, 4-((1-((6-methoxy-2,3-dihydro-1H-inden-1-yl)methyl)piperidin-4-yl)oxy)benzonitrile], the half-maximal inhibitory concentration (IC50) turned out to be 440 nM.

In the case of `COc1ccc2c(c1)C(CN1CCC(Oc3cncnc3)CC1)CC2` (centres unmarked) [Example 126, 5-((1-((6-methoxy-2,3-dihydro-1H-inden-1-yl)methyl)piperidin-4-yl)oxy)pyrimidine], the IC50 is above 3160 nM.

Consider `COCc1ccc(OC2CCN(CC3CCc4ncccc43)CC2)cc1` (centres unmarked) [Example 127, 5-((4-(4-(methoxymethyl)phenoxy)piperidin-1-yl)methyl)-6,7-dihydro-5H-cyclopenta[b]pyridine], for which the IC50 is above 12000 nM.

Consider `COc1ccccc1OC1CCN(CC2COc3ccccc32)CC1` (centres unmarked) [Example 130, 1-((2,3-dihydrobenzofuran-3-yl)methyl)-4-(2-methoxyphenoxy)piperidine], for which the IC50 was above 10000 nM.

In the case of `Fc1ccccc1OC1CCN(CC2COc3ccccc32)CC1` (centres unmarked) [Example 132, 1-((2,3-dihydrobenzofuran-3-yl)methyl)-4-(2-fluorophenoxy)piperidine], the IC50 was 40 nM.

In the case of `CC1(C)Oc2ccccc2C1CN1CCC(Oc2ccccc2F)CC1` (centres unmarked) [Example 133, 1-((2,2-dimethyl-2,3-dihydrobenzofuran-3-yl)methyl)-4-(2-fluorophenoxy)piperidine], the IC50 stood at 290 nM.

Take `CC1(C)Oc2ccccc2C1CN1CCC(Oc2ccc(F)cc2)CC1` (centres unmarked) [Example 135, 1-((2,2-dimethyl-2,3-dihydrobenzofuran-3-yl)methyl)-4-(4-fluorophenoxy)piperidine]: the half-maximal inhibitory concentration (IC50) turned out to be 120 nM.

`COc1ccccc1O[C@H]1CCN(CC2Cc3ccccc3C2)[C@@H](C)C1` [Example 143, (2S,4S)-1-((2,3-dihydro-1H-inden-2-yl)methyl)-4-(2-methoxyphenoxy)-2-methylpiperidine]: the 50% inhibitory concentration (IC50) turned out to be 80 nM.

For `COc1ccccc1O[C@@H]1CCN(CC2Cc3ccccc3C2)C[C@H]1C` [Example 145, (3R,4R)-1-((2,3-dihydro-1H-inden-2-yl)methyl)-4-(2-methoxyphenoxy)-3-methylpiperidine], the concentration for half-maximal inhibition (IC50) is 10 nM.

Consider `COc1ccccc1OC1CCN(CC2(C)Cc3ccccc3C2)CC1` [Example 146, 4-(2-methoxyphenoxy)-1-((2-methyl-2,3-dihydro-1H-inden-2-yl)methyl)piperidine], for which the IC50 is above 1000 nM.

In the case of `COc1ccccc1O[C@@H]1CCN(CC2Cc3cccnc3C2)[C@@H](C)C1` (stereo partly drawn) [Example 149, 6-(((2S,4R)-4-(2-methoxyphenoxy)-2-methylpiperidin-1-yl)methyl)-6,7-dihydro-5H-cyclopenta[b]pyridine], the IC50 was 300 nM.

With `COc1ccccc1OC1CCN(CC2(C)Cc3cccnc3C2)CC1` (centres unmarked) [Example 151, 6-((4-(2-methoxyphenoxy)piperidin-1-yl)methyl)-6-methyl-6,7-dihydro-5H-cyclopenta[b]pyridine], the IC50 is above 10000 nM.

As for `COCc1cccc(OC2CCN(CC3Cc4cccnc4C3)CC2)c1` (centres unmarked) [Example 152, 6-((4-(3-(methoxymethyl)phenoxy)piperidin-1-yl)methyl)-6,7-dihydro-5H-cyclopenta[b]pyridine], the half-maximal inhibitory concentration (IC50) turned out to be 220 nM.

For the molecule `COc1cccc(OC2CCN(CC3Cc4cccnc4C3)CC2)c1` (centres unmarked) [Example 153, 6-((4-(3-methoxyphenoxy)piperidin-1-yl)methyl)-6,7-dihydro-5H-cyclopenta[b]pyridine], the IC50 is 760 nM.

Take `N#Cc1ccc(OC2CCN(CC3Cc4cccnc4C3)CC2)cc1` (centres unmarked) [Example 156, 4-((1-((6,7-dihydro-5H-cyclopenta[b]pyridin-6-yl)methyl)piperidin-4-yl)oxy) benzonitrile]: the half-maximal inhibitory concentration (IC50) worked out at 2010 nM.

For the molecule `c1cnc(OC2CCN(CC3Cc4cccnc4C3)CC2)nc1` (centres unmarked) [Example 157, 6-((4-(pyrimidin-2-yloxy)piperidin-1-yl)methyl)-6,7-dihydro-5H-cyclopenta[b]pyridine], the IC50 was above 10000 nM.

As for `COCc1cccc(OC2CCN(CC3CCOc4ccccc43)CC2)c1` (centres unmarked) [Example 163, 1-(chroman-4-ylmethyl)-4-(3-(methoxymethyl)phenoxy)piperidine], the IC50 is 260 nM.

For the molecule `COc1cccc(OC2CCN(CC3CCOc4ccccc43)CC2)c1` (centres unmarked) [Example 164, 1-(chroman-4-ylmethyl)-4-(3-methoxyphenoxy)piperidine], the concentration for half-maximal inhibition (IC50) worked out at 860 nM.

With `COc1ccccc1O[C@H]1CCN(CCC2CCOc3ccccc32)[C@@H](C)C1` (stereo partly drawn) [Example 181, (2S,4S)-1-(2-(chroman-4-yl)ethyl)-4-(2-methoxyphenoxy)-2-methylpiperidine], the 50% inhibitory concentration (IC50) is above 10000 nM.

Consider `CC1Cc2ccccc2C(=O)N1CCN1CCC(Oc2cccc(Cl)c2)CC1` (centres unmarked) [Example 198, 2-(2-(4-(3-chlorophenoxy)piperidin-1-yl)ethyl)-3-methyl-3,4-dihydroisoquinolin-1(2H)-one], for which the 50% inhibitory concentration (IC50) is 410 nM.

`O=C1c2ccccc2CCN1CCN1CCC(Oc2ccncc2)CC1` [Example 199, 2-(2-(4-(pyridin-4-yloxy)piperidin-1-yl)ethyl)-3,4-dihydroisoquinolin-1(2H)-one]: the half-maximal inhibitory concentration (IC50) is above 8700 nM.

Consider `CC(CN1CCc2ccccc2C1=O)N1CCC(Oc2ccc(F)cc2)CC1` (centres unmarked) [Example 204, 2-(2-(4-(4-fluorophenoxy)piperidin-1-yl)propyl)-3,4-dihydroisoquinolin-1(2H)-one], for which the IC50 is 560 nM.

In the case of `c1ccc(CCN2CCC(Oc3ccccc3)CC2)cc1` [Example 214, 1-phenethyl-4-phenoxypiperidine], the concentration for half-maximal inhibition (IC50) is 40 nM.

For the molecule `COC(CCN1CCC(Oc2ccccc2)CC1)c1ccccc1` (centres unmarked) [Example 226, 1-(3-methoxy-3-phenylpropyl)-4-phenoxypiperidine], the IC50 is 20 nM.

As to `c1ccc(OCCN2CCC(Oc3ccc4cccnc4c3)CC2)cc1` [Example 231, 7-((1-(2-phenoxyethyl)piperidin-4-yl)oxy)quinoline], the concentration for half-maximal inhibition (IC50) came out at 790 nM.

With `O[C@H](COC1CCCCC1)CN1CCC(Oc2ccccc2)CC1` [Example 233, (S)-1-(cyclohexyloxy)-3-(4-phenoxypiperidin-1-yl)propan-2-ol], the IC50 worked out at 50 nM.

Take `O[C@@H](COC1CCCCC1)CN1CCC(Oc2ccccc2)CC1` [Example 234, (R)-1-(cyclohexyloxy)-3-(4-phenoxypiperidin-1-yl)propan-2-ol]: the concentration for half-maximal inhibition (IC50) was determined as 30 nM.

For `OC(COC1COCc2ccccc21)CN1CCC(Oc2ccccc2)CC1` (centres unmarked) [Example 239, 1-(isochroman-4-yloxy)-3-(4-phenoxypiperidin-1-yl)propan-2-ol], the 50% inhibitory concentration (IC50) came to 3510 nM.
